{"source": "paper PMC2800189", "about": "“β-Neurexin Is a Ligand for the Staphylococcus aureus MSCRAMM SdrC” (PLoS Pathogens, 2010)", "key": {"[1]": {"system": "SdrCN2N3 - Nrx47-255 interaction", "experiment": "Peptide inhibition of SdrCN2N3 binding to immobilized Nrx47-255", "set-up": "species or system S. aureus (SdrC)", "conditions": "0.5 µM SdrCN2N3 with increasing peptide, 2 hours, room temperature, then on immobilized Nrx47-255; mean±SD of triplicates from three experiments", "procedure": "Figure 3 Structural organization of β-neurexins. (A) A cartoon representation of β-neurexin domain structure. S, signal sequence; NL, neuroligin-binding domain; Glyc, glycosylation domain; TM, transmembrane domain; PDZ, intracellular signaling domain. Also shown, are the recombinant proteins used in this study. (B) Coomassie-stained SDS-PAGE gel of GST-tagged neurexin 1β domains recombinant proteins. Increasing concentrations of SdrCA (C) and SdrCN2N3 (D) were incubated with immobilized Nrx47-255 (black square), Nrx70–255 (black triangle) or GST (black circle) for 1 hour at room temperature. […] (E) SdrC178–496 (0.5 µM) was incubated with increasing concentrations of spNrxwt peptide (black square) or spNrxscr peptide (black triangle) at room temperature. After 2 hours, the mixture was incubated with immobilized Nrx47–255. […]\nEach well of Immulon 4BH plates was coated with 1 µg of recombinant Nrx47–255-GST, Nrx70–255-GSTor GST overnight at 4°C. […] Bound protein was detected with a polyclonal antibody (1∶3000) against SdrCN2N3 (H.T.I. BioProducts) followed by an anti-rabbit HRP-labeled antibody (1∶5000) (Bio-Rad Labs, Hercules, CA). Color development was performed using SigmaFast OPD (Sigma, St. Louis, MO) and the binding was measured using a microtiter plate reader (Molecular Devices) at 450 nm. […] The binding was analyzed by non-linear regression for one binding site (GraphPad Prism)."}, "[2]": {"target": "T1, SdrCN2N3 (Staphylococcus aureus, UniProt O86487)", "T1 construct": "Increasing concentrations of SdrC178-496 were incubated with 10 nM labeled peptide; His tag (N); made in house; host or cells: E. coli Topp 3", "T1 sequence (O86487 178-496)": "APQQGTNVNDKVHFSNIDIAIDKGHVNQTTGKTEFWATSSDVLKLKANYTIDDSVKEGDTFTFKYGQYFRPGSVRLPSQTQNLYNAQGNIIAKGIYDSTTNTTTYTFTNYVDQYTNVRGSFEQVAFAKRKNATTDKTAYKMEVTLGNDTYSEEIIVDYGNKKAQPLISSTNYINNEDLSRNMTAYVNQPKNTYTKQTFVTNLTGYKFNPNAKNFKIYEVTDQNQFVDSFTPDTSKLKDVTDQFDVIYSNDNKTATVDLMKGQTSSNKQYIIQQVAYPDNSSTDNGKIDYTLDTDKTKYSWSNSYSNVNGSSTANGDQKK", "format": "binding, S. aureus", "conditions": "10 nM fluorescein-labeled peptide, 3 hours, room temperature, dark", "protocol": "We used fluorescence polarization to determine the dissociation constant for the SdrCN2N3-Nrx1β peptide interaction. spNrxwt and spNrxscr were labeled with fluorescein and incubated with increasing concentrations of recombinant MSCRAMM.\nIncreasing concentrations of SdrCN2N3 or ClfBN2N3 (black circle) were incubated with 10 nM fluorescein-labelled spNrxwt peptide (black square) or spNrxscr peptide (black triangle) for 3 hours at room temperature in the dark. Equation ΔP = ΔPmax [protein]/(KD+[protein]) was used to calculate the equilibrium constant. […] After 3 hours, the mixture was incubated for another 3 hours at room temperature in the dark with 10 nM fluorescein labeled spNrxwt peptide. Fluorescence polarization was determined as described above. […]\nIncreasing concentrations of SdrC178-496 were incubated with 10 nM labeled peptide for 3 hours in the dark at room temperature. Polarization was measured using Luminescence Spectrometer LB50B (Perkin Elmer). The data were analyzed by non-linear regression for one binding site. The equilibrium dissociation constant was calculated using the equation ΔP = ΔPmax x [protein])/(KD + [protein]) (Eq.1) where ΔP is the change in fluorescence polarization, ΔPmax is the maximum change in fluorescence polarization and KD is the equilibrium dissociation constant of the interaction."}, "[3]": {"target": "T1, SdrCN2N3", "experiment": "Fluorescence polarization inhibition by unlabeled peptides of SdrCN2N3 binding to fluorescein-labeled spNrxwt", "set-up": "species or system S. aureus", "conditions": "0.5 µM SdrCN2N3 with unlabeled peptide 3 hours, then 3 hours with 10 nM labeled spNrxwt, room temperature; mean±SD, three experiments", "protocol": "After 3 hours, the mixture was incubated for another 3 hours at room temperature in the dark with 10 nM fluorescein labeled spNrxwt peptide. Fluorescence polarization was determined as described above. The values represented here are the mean±SD of triplicates from three experiments.\nTo eliminate the possibility that the binding was dependent of the fluorescein label introduced in the wild-type peptide, we tested the ability of unlabeled spNrxwt and spNrxscr to inhibit the binding of SdrCN2N3 to fluorescein-labeled spNrxwt. Increasing concentrations of unlabeled peptides were incubated with SdrCN2N3 for three hours at room temperature before the fluorescent polarization experiment was performed.\nFor inhibition assays, 0.5 µM SdrC178–496 was first incubated with increasing concentrations of unlabeled Nrxwt or unlabeled Nrxscr for 3 hours at room temperature. The mixture was then incubated for 3 hours with fluorescein-labeled Nrxwt. The results presented represent the mean±SD of three independent experiments."}, "[4]": {"target": "Nrx_(47-255)-GST, recombinant neurexin 1β fragment (human) (UniProt P58400)", "sequence (P58400 47-255)": "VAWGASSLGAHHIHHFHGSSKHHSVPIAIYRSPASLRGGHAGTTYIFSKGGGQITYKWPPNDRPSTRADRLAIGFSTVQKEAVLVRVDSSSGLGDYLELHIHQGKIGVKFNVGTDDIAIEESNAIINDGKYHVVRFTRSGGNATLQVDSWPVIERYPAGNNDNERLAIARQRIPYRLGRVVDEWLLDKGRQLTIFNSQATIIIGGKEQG", "experiment": "ELISA; solid phase binding assay: 1 µg/well Nrx-GST protein or GST coated on Immulon 4BH plates, increasing concentrations of SdrC protein, 1 hour at room temperature, detected with anti-SdrC_(N2N3) serum; apparent KD (concentration for half maximum binding)"}, "[5]": {"target": "fluorescein-labeled spNrxwt (human)", "experiment": "fluorescence polarisation; increasing concentrations of MSCRAMM with 10 nM fluorescein-labelled peptide, 3 hours at room temperature in the dark; one-site fit"}, "[6]": {"experiment": "Phage display panning with immobilized SdrGN2N3 or BSA, total bound TUs", "format": "binding", "conditions": "input phage 1.5×10^11, 1 µg/well", "from_the_text": "Analysis of peptides or protein segments displaced on the surface of phage is a useful method to identify partners in protein-protein interaction systems,[17],[18],[19]. To determine if this method can be used to identify ligands for MSCRAMMs from Gram-positive bacteria, we performed a validation experiment using SdrGN2N3 as bait in a screen of a commercially available 12-mer linear library (New England Biolabs Ph.D.-12 Phage Display Peptide Library). We carried out three successive rounds of panning against immobilized SdrGN2N3. To confirm that the enrichment of the phage clones between panning rounds was the result of specific interactions, the phage pool before and after each step of amplification was also tested for binding to BSA. […] We then sequenced the DNA purified from ten phage plaques obtained after the third round of panning.\nNEB Ph.D.12-mer random library was incubated with immobilized SdrC N2N3, SdrG N2N3 or BSA at 1 µg/well. The input was 1.5×10^11 transducing units with a complexity of 2.7×10^9 electroporated sequences. The assay was performed according to the manufacturer's instructions. The output phage plaques were 10^4 transducing units. Wells were washed with 0.5% Tween in TBS buffer, blocked with 10% BSA and incubated with 1×10^8 transducing units of each amplified phage or insertless phage (fd-tet). To remove unbound phage, wells were washed 10 times with 0.5% Tween in TBS. Bound phage was detected with anti-M13-HRP antibody (GE Healthcare, Buckinghamshire, UK)."}}, "data": [{"substance": "HSHIKLHSHGHSFGHA [spNrxscr]", "values": [{"measurement": "inhibition of SdrCN2N3-Nrx47-255 binding", "setting": "[1]", "result": "did not observe an inhibition"}, {"measurement": "binding to SdrCN2N3 by fluorescence polarization", "setting": "[2]", "result": "did not detect a significant binding"}, {"measurement": "inhibition of SdrCN2N3 binding to fluorescein-labeled spNrxwt", "setting": "[3]", "result": "but not the spNrxscr inhibited"}]}, {"substance": "SdrC A-region, recombinant SdrC_(52-496) (from UniProt O86487 52-496) (domain or fragment)", "values": [{"measurement": "Kd", "setting": "[4]", "result": 185, "unit": "nM"}]}, {"substance": "SdrC N2N3 domain, recombinant SdrC_(178-496) (from UniProt O86487 178-496) (domain or fragment)", "values": [{"measurement": "Kd", "setting": "[5]", "result": 250, "unit": "nM"}, {"measurement": "Kd", "setting": "[4]", "result": 126, "unit": "nM"}]}, {"substance": "SdrG: fibrinogen-binding MSCRAMM of Staphylococcus epidermidis, N2N3 domain used as bait", "values": [{"measurement": "Total bound TUs", "setting": "[6]; panning 1", "result": "4×10^5 TUs"}, {"measurement": "Total bound TUs", "setting": "[6]; panning 2", "result": "3×10^7 TUs"}, {"measurement": "Total bound TUs", "setting": "[6]; panning 3", "result": "2×10^8 TUs"}]}]}
